From patent US8426448B2, “1,5-diphenyl-pyrrolidin-2-one compounds as CB-1 ligands” (Eli Lilly and Company, priority 2008, dated 2013)
Structures can show the parent of a compound that is named as a salt.

Key:
[1] = molecular target: T1, CYP2C9 (Homo sapiens, UniProt P11712); experiment: Human CYP fingerprinting, sulfaphenazole inhibition; assay type: in vitro ADME; settings: 4 μM, human liver microsomes, 30 min, 5 μM sulfaphenazole
T1 construct: pooled, mixed gender, human liver microsomes; from tissue; host or cells: pooled, mixed gender human liver microsomes
Experimental: (§1) CYP fingerprinting is well established technique and is used as an indication of potential risk of drug-drug interactions in the pharmaceutical sciences. Compounds of the present invention may be assayed by well known methods, essentially as follows: Compounds are incubated at 37° C. at a final concentration of 4 μM with pooled, mixed gender, human liver microsomes and 1 mM NADPH (Nicotine Adenine Dinucleotide Phosphate) (final conc.) for 0 and 30 min. without any CYP inhibitor and with each CYP inhibitor in separate incubations for 30 min. Each inhibitor is specific for an individual cytochrome P450. The specific inhibitors used for CYPs 2C9, 2D6 and 3A were sulfaphenazole, quinidine and ketoconazole, respectively. Ketoconazole (CYP3A) is made up at 25 mM in DMSO and then diluted in buffer to a final concentration of 10 μM. Quinidine (CYP2D6) is made up at 5 mM in 50/50 acetonitrile/water and then diluted in buffer to a final concentration of 10 μM. Sulfaphenazole (CYP2C9) is made up at 100 mM in DMSO and then diluted in buffer to a final concentration of 5 μM. Samples are analyzed by LC-MS in positive or negative electrospray mode using a Waters Acquity Ultra Performance LC coupled to a MicroMass Q-T of-2 mass spectrometer.
(§2) Data are analyzed using MetaboLynx™ version 4.1. […]

[2] = molecular target: T2, hCB-2 (Homo sapiens, UniProt P34972); experiment: hCB2-Sf9 antagonist mode SPA GTP-γ-35S binding assay; assay type: biochemical; settings: antagonist mode vs methanandamide; read-out: hCB-2 SPA GTPγS Sf9 Membrane Antagonist Kb
T2 construct: purchased Perkin Elmer, Boston, Mass; host or cells: Sf9 cell membranes
Experimental: Compounds of the present invention may be tested for functional activity at the CB-1 and CB-2 receptors in both agonist and antagonist modes using SPA (Scintillation Proximity Assay) based GTP-γ-^35S binding assays. All assay components are prepared in assay buffer (20 mM HEPES, 100 mM NaCl, 5 mM MgCl2, pH 7.4) at room temperature. Semi-log dilutions of test compound are prepared in assay buffer containing BSA (0.125% final conc.) for the agonist mode assays. For the antagonist mode assays, test compounds are prepared in the same manner but also include an 80% efficacious dose of a full agonist (methanandamide). GTP-γ^35S binding for the antagonist assay may be measured in a 96 well format using a modification of an antibody capture technique previously described. (DeLapp, N W, et al. (1999) J Pharmacol Exp Ther 289:946-955.) The CB-2 receptor agonist activity may be measured using a similar method using hCB2-Sf9 membranes. The CB-1 receptor agonist activity may be measured using a whole membrane capture technique using hCB1-CHO membranes. All incubations are done at room temperature. […]
Data are analyzed as follows: Background is subtracted from all wells. […] Percent antagonist inhibition is calculated by first normalizing the data to the signal generated by a saturating concentration of the full agonist (methanandamide). Then the data are analyzed using a 4-parameter logistic reduced fit (Activity Base™ and XLFit3™ from IDBS, Emeryville, Calif.). Kb values are determined using a modification of the Cheng-Prusoff relationship: Kb=IC50/(1+[agonist]/EC50), where “IC50” is determined from a four parameter fit of displacement curves, “[agonist]” is the agonist challenge concentration (nM), and “EC50” is determined from a four parameter fit of a full agonist concentration response curve (Cheng and Prusoff 1973). Mean Kb values are calculated as a mean of at least three independent determinations±standard error of the mean (SEM). […]

[3] = tested on: CYP3A; experiment: Human CYP fingerprinting, ketoconazole inhibition; assay type: in vitro ADME; settings: 4 μM, human liver microsomes, 30 min, 10 μM ketoconazole
Experimental: as §1, §2

[4] = molecular target: T3, rCB-1 (Rattus norvegicus, UniProt P20272); experiment: rCB1-CHO antagonist mode SPA GTP-γ-35S binding assay; assay type: biochemical; settings: antagonist mode vs methanandamide; read-out: rCB-1 SPA GTPγS CHO Membrane Antagonist Kb
T3 construct: purchased Applied Cell Sciences, Rockville, Md; host or cells: CHO cell membranes
Experimental: (§3) Compounds of the present invention may be tested for functional activity at the CB-1 and CB-2 receptors in both agonist and antagonist modes using SPA (Scintillation Proximity Assay) based GTP-γ-^35S binding assays. All assay components are prepared in assay buffer (20 mM HEPES, 100 mM NaCl, 5 mM MgCl2, pH 7.4) at room temperature. Semi-log dilutions of test compound are prepared in assay buffer containing BSA (0.125% final conc.) for the agonist mode assays. For the antagonist mode assays, test compounds are prepared in the same manner but also include an 80% efficacious dose of a full agonist (methanandamide). GTP-γ^35S binding for the antagonist assay may be measured in a 96 well format using a modification of an antibody capture technique previously described. (DeLapp, N W, et al. (1999) J Pharmacol Exp Ther 289:946-955.) The CB-2 receptor agonist activity may be measured using a similar method using hCB2-Sf9 membranes. The CB-1 receptor agonist activity may be measured using a whole membrane capture technique using hCB1-CHO membranes. All incubations are done at room temperature.
(§4) hCB1-CHO or rCB1-CHO membranes (Applied Cell Sciences, Rockville, Md.) and GDP (1 μM final) are added to ice cold assay buffer and homogenized. […] Plates are then centrifuged at 700×g for 10 min. and the radioactivity counted.
(§5) Data are analyzed as follows: Background is subtracted from all wells. […] Percent antagonist inhibition is calculated by first normalizing the data to the signal generated by a saturating concentration of the full agonist (methanandamide). Then the data are analyzed using a 4-parameter logistic reduced fit (Activity Base™ and XLFit3™ from IDBS, Emeryville, Calif.). Kb values are determined using a modification of the Cheng-Prusoff relationship: Kb=IC50/(1+[agonist]/EC50), where “IC50” is determined from a four parameter fit of displacement curves, “[agonist]” is the agonist challenge concentration (nM), and “EC50” is determined from a four parameter fit of a full agonist concentration response curve (Cheng and Prusoff 1973). […]

[5] = molecular target: hCB-1 (Homo sapiens, UniProt P21554); experiment: hCB1-CHO antagonist mode SPA GTP-γ-35S binding assay; assay type: biochemical; set-up: purchased Applied Cell Sciences, Rockville, Md; host or cells: CHO cell membranes; settings: antagonist mode vs methanandamide; read-out: hCB-1 SPA GTPγS CHO Membrane Antagonist Kb
Experimental: as §3, §4, §5

[6] = molecular target: T4, CYP2D6 (Homo sapiens, UniProt P10635); experiment: Human CYP fingerprinting, quinidine inhibition; assay type: in vitro ADME; settings: 4 μM, human liver microsomes, 30 min, 10 μM quinidine
T4 construct: pooled, mixed gender, human liver microsomes; from tissue; host or cells: pooled, mixed gender human liver microsomes
Experimental: as §1, §2

T3 sequence (P20272 whole entry): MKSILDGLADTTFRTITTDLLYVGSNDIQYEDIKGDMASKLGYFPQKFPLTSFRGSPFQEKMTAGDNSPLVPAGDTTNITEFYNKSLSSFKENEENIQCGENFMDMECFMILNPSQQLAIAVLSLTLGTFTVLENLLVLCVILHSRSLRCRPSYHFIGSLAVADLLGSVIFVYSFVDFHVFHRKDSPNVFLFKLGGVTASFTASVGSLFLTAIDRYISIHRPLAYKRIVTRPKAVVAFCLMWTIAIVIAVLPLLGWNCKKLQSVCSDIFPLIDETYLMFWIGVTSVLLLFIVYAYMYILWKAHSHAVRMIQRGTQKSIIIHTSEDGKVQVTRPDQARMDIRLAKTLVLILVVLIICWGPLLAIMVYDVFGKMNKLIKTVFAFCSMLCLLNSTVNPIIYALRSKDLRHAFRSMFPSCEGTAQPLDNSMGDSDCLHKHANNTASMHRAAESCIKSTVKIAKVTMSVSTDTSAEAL
Chain of hCB-1 (P21554 whole entry): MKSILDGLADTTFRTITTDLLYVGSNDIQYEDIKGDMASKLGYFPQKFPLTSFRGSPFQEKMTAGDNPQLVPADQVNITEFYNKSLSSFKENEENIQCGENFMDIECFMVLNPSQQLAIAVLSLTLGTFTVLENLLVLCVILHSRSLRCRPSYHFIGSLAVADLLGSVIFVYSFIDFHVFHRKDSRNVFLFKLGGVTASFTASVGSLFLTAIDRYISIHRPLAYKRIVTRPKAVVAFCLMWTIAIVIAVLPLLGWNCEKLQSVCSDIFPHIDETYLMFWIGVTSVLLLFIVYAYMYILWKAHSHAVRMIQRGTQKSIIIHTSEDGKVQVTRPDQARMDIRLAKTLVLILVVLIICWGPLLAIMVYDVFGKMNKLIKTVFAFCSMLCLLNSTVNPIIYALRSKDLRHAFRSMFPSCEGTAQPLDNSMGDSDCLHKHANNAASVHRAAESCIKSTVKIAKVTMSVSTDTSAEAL
T1 sequence (P11712 whole entry): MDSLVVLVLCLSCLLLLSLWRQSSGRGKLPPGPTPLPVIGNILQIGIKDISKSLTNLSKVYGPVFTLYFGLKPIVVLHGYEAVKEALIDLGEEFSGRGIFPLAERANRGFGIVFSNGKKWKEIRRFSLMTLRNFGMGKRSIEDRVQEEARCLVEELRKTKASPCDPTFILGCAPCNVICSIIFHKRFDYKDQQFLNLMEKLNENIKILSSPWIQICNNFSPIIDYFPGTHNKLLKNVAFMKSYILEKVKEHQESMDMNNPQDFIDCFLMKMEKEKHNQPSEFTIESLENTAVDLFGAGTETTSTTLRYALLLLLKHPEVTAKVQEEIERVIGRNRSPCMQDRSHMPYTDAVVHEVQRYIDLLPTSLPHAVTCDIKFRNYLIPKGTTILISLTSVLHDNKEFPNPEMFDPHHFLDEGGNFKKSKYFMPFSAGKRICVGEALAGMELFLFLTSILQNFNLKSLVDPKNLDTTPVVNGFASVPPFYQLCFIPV
T2 sequence (P34972 whole entry): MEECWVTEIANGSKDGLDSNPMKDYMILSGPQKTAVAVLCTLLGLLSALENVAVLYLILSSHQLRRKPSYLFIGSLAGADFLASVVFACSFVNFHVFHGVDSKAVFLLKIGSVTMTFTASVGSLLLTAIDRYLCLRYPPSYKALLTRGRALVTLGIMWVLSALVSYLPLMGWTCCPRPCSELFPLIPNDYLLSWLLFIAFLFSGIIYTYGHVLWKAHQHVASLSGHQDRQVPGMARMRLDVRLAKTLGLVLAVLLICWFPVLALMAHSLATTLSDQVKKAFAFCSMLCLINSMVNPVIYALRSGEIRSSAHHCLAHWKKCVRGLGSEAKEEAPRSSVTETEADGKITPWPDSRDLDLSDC
T4 sequence (P10635 whole entry): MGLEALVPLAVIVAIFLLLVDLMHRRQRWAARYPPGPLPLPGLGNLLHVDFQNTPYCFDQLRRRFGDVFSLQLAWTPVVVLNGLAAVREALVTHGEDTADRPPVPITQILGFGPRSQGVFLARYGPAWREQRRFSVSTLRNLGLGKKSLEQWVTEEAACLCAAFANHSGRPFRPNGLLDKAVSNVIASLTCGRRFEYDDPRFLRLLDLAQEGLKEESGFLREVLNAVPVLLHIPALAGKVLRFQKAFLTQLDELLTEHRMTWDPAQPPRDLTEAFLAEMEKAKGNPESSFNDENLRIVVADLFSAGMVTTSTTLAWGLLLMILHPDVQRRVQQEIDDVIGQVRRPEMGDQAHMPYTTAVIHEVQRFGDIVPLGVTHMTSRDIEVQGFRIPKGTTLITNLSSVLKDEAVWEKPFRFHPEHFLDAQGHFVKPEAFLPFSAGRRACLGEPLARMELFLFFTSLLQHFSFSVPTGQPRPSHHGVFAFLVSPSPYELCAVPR

Q: Which results are given for `CC(C)(N[C@@H]1C[C@H](c2cccc(C(F)(F)F)c2)N(c2ccc(OC(F)(F)F)cc2)C1=O)c1cccc(C(F)(F)F)n1` [28 HCl salt, (3R,5R)-3-[1-methyl-1-(6-trifluoromethyl-pyridin-2-yl)-ethylamino]-1-(4-trifluoromethoxy-phenyl)-5-(3-trifluoromethyl-phenyl)-pyrrolidin-2-one]?
A: Risk of Drug Drug Interaction (DDI) CYP2C9 [1]: low (a reduction in metabolite peak area of less than 30% (relative to the uninhibited control incubation) receives a designation of low risk of Drug Drug Interaction (DDI)); Kb [2]: > 9090 nM; Risk of Drug Drug Interaction (DDI) CYP3A [3]: Low; Kb [4]: 0.196 nM; Kb [5]: 0.464 nM; Risk of Drug Drug Interaction (DDI) CYP2D6 [6]: Low
